The values that follow come from ChEMBL document CHEMBL1201862, “PubChem BioAssay data set” (2004).

Some test systems named below: CAKI-1; DLD-1; DMS-273; EKVX; HCT-15; HOP-18; LOX IMVI; M14; M19-MEL; MOLT-4; OVCAR-5; TK-10; BT-549; DU-145; Hs-578T; MCF7; MDA-N; PC-3; SR; T47D.
What all share (assay): NCI anticancer screen, dose series, 48 h

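Dose response: 5 concentrations. Exposure: 48 h. Format: 96-well plates. Endpoint: linear interpolation; highest concentration if not reached. Here, GI50 denotes the concentration required for 50% inhibition of growth.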 Calls of active or inactive are those of the source. Cut-off read from the data, not from the text of the source: active = GI50 up to about 1.1 µM and inactive = higher. A value given as a limit tells only on which side of the number the result lay.

As for `Cc1cccc2nc3cccc(C(=O)NCCN(C)C)c3nc12`, the GI50 with CAKI-1 is 0.482 µM (active); with DLD-1, 0.444 µM (active); in the assay on DMS-273, 0.42 µM (active); in the assay on EKVX it was 0.443 µM (active); in the assay on HCT-15, 0.442 µM; with HOP-18, 2.4 µM (inactive). Further, the GI50 with LOX IMVI is 0.36 µM (active); in the assay with M14 it was 0.766 µM (active); in the assay on M19-MEL, 0.675 µM (active); in the assay with MOLT-4 it was 0.26 µM (active); with OVCAR-5, 1.61 µM (inactive); in the assay on TK-10, 0.433 µM (active).

With `O=C(c1ccccc1)c1ccc2n[se]nc2c1`, the GI50 with CAKI-1 was 27.7 µM (inactive); in the assay on DLD-1 it was 50 µM (inactive); in the assay with DMS-273 it was 10.3 µM (inactive); in the assay with EKVX, 56.5 µM (inactive); in the assay on HCT-15, 14 µM; in the assay on HOP-18, < 0.01 µM (active). The GI50 is 29.4 µM (inactive) in the assay on LOX IMVI; 19.1 µM (inactive) with M14; 23.9 µM (inactive) in the assay on MOLT-4; 36.5 µM (inactive) in the assay on OVCAR-5; > 100 µM (inactive) with TK-10.

For the compound `COc1cc(-c2cc(=O)c3c(O)c(CC=C(C)C)c(O)cc3o2)ccc1O`, the GI50 in the assay on BT-549 is 21.6 µM (inactive); with CAKI-1 it was 10 µM (inactive); in the assay with DU-145, 32.9 µM (inactive); in the assay on EKVX it was 7.29 µM (inactive); with HCT-15, 15 µM; with Hs-578T, 29.5 µM (inactive). Moreover, the GI50 with LOX IMVI is 19.1 µM (inactive); with M14, 12.4 µM (inactive); with MCF7 it was 25.1 µM (inactive); with MDA-N, 8.49 µM (inactive); with MOLT-4, 16.3 µM (inactive); in the assay on OVCAR-5, > 50 µM (inactive). The GI50 with PC-3 is 16.7 µM (inactive); in the assay with SR it was 14.7 µM (inactive); with T47D, 9.77 µM (inactive); with TK-10, 23.4 µM (inactive).

For `O=C(Nc1ccccc1F)c1c(O)nc2sccn2c1=O`, the GI50 with CAKI-1 was > 10 µM (inactive); in the assay on DU-145, > 10 µM (inactive); in the assay on EKVX, > 10 µM (inactive); in the assay with HCT-15, over 10 µM; in the assay with Hs-578T, > 10 µM (inactive); in the assay on LOX IMVI, > 10 µM (inactive). The GI50 in the assay on M14, with MCF7, in the assay with MDA-N, in the assay with MOLT-4, in the assay with OVCAR-5 and in the assay with PC-3 was > 10 µM (inactive) each time. The GI50 with SR, in the assay on T47D and with TK-10 was > 10 µM (inactive) throughout.

As for `COc1cccc(-c2nnc3c(-c4ccccc4)nc4ccccc4n23)c1`, the GI50 in the assay with BT-549 was 35.9 µM (inactive); with CAKI-1, 33.6 µM (inactive); in the assay on DU-145 it was 42.5 µM (inactive); in the assay on EKVX it was 55.2 µM (inactive); with HCT-15, 7.23 µM; in the assay on Hs-578T, 57.9 µM (inactive). Besides, the GI50 was 63.5 µM (inactive) in the assay on LOX IMVI; 29.5 µM (inactive) with M14; 14.4 µM (inactive) in the assay on MCF7; 3.5 µM (inactive) in the assay on MDA-N; 9.53 µM (inactive) in the assay on MOLT-4; > 100 µM (inactive) in the assay on OVCAR-5. The GI50 was 16.4 µM (inactive) in the assay on PC-3, 3.9 µM (inactive) in the assay on SR, 4.35 µM (inactive) with T47D and 36.3 µM (inactive) in the assay on TK-10.

In the case of `Nc1cccc2c1C1=NNC(=O)CC1C2` (stereo not drawn), the GI50 in the assay on CAKI-1 is > 100 µM (inactive); in the assay on DLD-1, > 100 µM (inactive); in the assay on DMS-273, > 100 µM (inactive); in the assay on EKVX, > 76.6 µM (inactive); with HCT-15 it was over 100 µM; in the assay with LOX IMVI it was > 100 µM (inactive). For the same compound, the GI50 in the assay on M19-MEL, in the assay on MCF7, with MOLT-4 and with OVCAR-5 was > 100 µM (inactive) each time.

Consider `N=C(CSS(=O)(=O)O)NC1CC2CCC1C2` (stereo not drawn), for which the GI50 with BT-549 was > 100 µM (inactive); in the assay with CAKI-1 it was > 100 µM (inactive); in the assay with DU-145, > 100 µM (inactive); with HCT-15, over 100 µM; in the assay on Hs-578T it was > 100 µM (inactive); in the assay with LOX IMVI, 46 µM (inactive). Besides, the GI50 in the assay with M14 is > 100 µM (inactive); in the assay with MCF7, > 100 µM (inactive); in the assay with MDA-N, > 100 µM (inactive); with MOLT-4, 78.2 µM (inactive); in the assay with PC-3, > 100 µM (inactive); in the assay on SR it was > 100 µM (inactive). Further, the GI50 with T47D is 71.8 µM (inactive); in the assay on TK-10, > 100 µM (inactive).

`CCOC(=O)CCC(NC(=O)OCc1ccccc1)C(=O)NC(CCC(=O)OCC)C(=O)NNC(=O)OC(C)(C)C` (stereo not drawn): the GI50 in the assay on BT-549 was > 100 µM (inactive); in the assay on CAKI-1, > 100 µM (inactive); with DU-145, > 100 µM (inactive); with HCT-15, over 100 µM; in the assay on Hs-578T, > 100 µM (inactive); in the assay on M14, > 100 µM (inactive). Moreover, the GI50 in the assay on MCF7 is > 100 µM (inactive); in the assay on MDA-N, > 100 µM (inactive); in the assay with MOLT-4, 28.2 µM (inactive); with OVCAR-5, > 100 µM (inactive); in the assay with PC-3, 38.8 µM (inactive); with SR, > 100 µM (inactive). Also, the GI50 in the assay on T47D was > 100 µM (inactive).

Consider `CC1(C)OP(=O)(c2ccccc2)C=C1Sc1ccc([N+](=O)[O-])cc1[N+](=O)[O-]` (stereo not drawn), for which the GI50 in the assay with CAKI-1 was > 100 µM (inactive); in the assay with DU-145 it was 74.6 µM (inactive); in the assay on EKVX, > 100 µM (inactive); with HCT-15, 65.5 µM; in the assay on Hs-578T, > 100 µM (inactive); in the assay with LOX IMVI it was 36.6 µM (inactive). In addition, the GI50 is 63.8 µM (inactive) in the assay on M14; 41.5 µM (inactive) in the assay on MCF7; 71.8 µM (inactive) in the assay with MDA-N; > 100 µM (inactive) with OVCAR-5; 65.3 µM (inactive) with PC-3; 17.3 µM (inactive) in the assay on SR. Further, the GI50 in the assay with T47D and in the assay on TK-10 was > 100 µM (inactive) each time.

As for `N/N=C1\C(OC(=O)Nc2cccc(Cl)c2)=Nc2ccccc21`, the GI50 in the assay on BT-549 was 7.96 µM (inactive); with CAKI-1, 4.47 µM (inactive); in the assay with DU-145, 8.39 µM (inactive); with EKVX it was 4.05 µM (inactive); in the assay on HCT-15 it was 6.89 µM; in the assay with Hs-578T, 16.1 µM (inactive). Also, the GI50 with LOX IMVI was 7.83 µM (inactive); in the assay on M14, 7.01 µM (inactive); in the assay with MCF7 it was 8.51 µM (inactive); in the assay on MDA-N it was 3.12 µM (inactive); in the assay with MOLT-4 it was 6.49 µM (inactive); in the assay with OVCAR-5 it was 14 µM (inactive). Also, the GI50 was 4.98 µM (inactive) in the assay with PC-3, 11.4 µM (inactive) in the assay with SR, 2.45 µM (inactive) in the assay with T47D and 12.1 µM (inactive) in the assay on TK-10.

With `CC(=O)c1c(P(=O)(OC(C)C)OC(C)C)nn(-c2ccc([N+](=O)[O-])cc2)c1C`, the GI50 was > 100 µM (inactive) with CAKI-1; > 100 µM (inactive) in the assay with DLD-1; > 100 µM (inactive) in the assay on DMS-273; > 100 µM (inactive) with EKVX; over 100 µM with HCT-15; > 100 µM (inactive) with M14. Further, the GI50 with M19-MEL, with MOLT-4, in the assay on OVCAR-5, in the assay on SR and with TK-10 was > 100 µM (inactive) in each case.

As for `CCOC(=O)CSc1nc(N)c2c(-c3ccc(OC)c(OC)c3)c3c(nc2n1)CCCC3`, the GI50 in the assay with BT-549 was 61.9 µM (inactive); in the assay on CAKI-1, > 100 µM (inactive); in the assay with DU-145, > 100 µM (inactive); in the assay with EKVX, 95.3 µM (inactive); in the assay with HCT-15 it was over 100 µM; in the assay with Hs-578T, 17.1 µM (inactive). Moreover, the GI50 with LOX IMVI, in the assay on M14, in the assay on MCF7, in the assay with MDA-N, in the assay on MOLT-4 and in the assay on OVCAR-5 was > 100 µM (inactive) throughout. In addition, the GI50 in the assay with PC-3, in the assay on SR, in the assay on T47D and in the assay on TK-10 was > 100 µM (inactive) in each case.

Consider `CSc1nc(NC2OC(CO)C(O)C(O)C2O)c(N)c(=O)[nH]1` (stereo not drawn), for which the GI50 in the assay on DLD-1 was > 100 µM (inactive); with DMS-273, > 100 µM (inactive); in the assay on EKVX, > 100 µM (inactive); with HCT-15, over 100 µM; in the assay with HOP-18 it was > 100 µM (inactive); with LOX IMVI, > 100 µM (inactive). The GI50 in the assay on M19-MEL, in the assay with MCF7, with MOLT-4 and with OVCAR-5 was > 100 µM (inactive) throughout.

Regarding `C[C@]12CC[C@@H]3c4ccc(OCCN5CCCC5)cc4CC[C@H]3[C@@H]1CCC2=O`, the GI50 in the assay on CAKI-1 is 31.1 µM (inactive); with DU-145, 47.9 µM (inactive); with EKVX it was 18.2 µM (inactive); in the assay on HCT-15 it was 6.35 µM; with LOX IMVI, 7.38 µM (inactive); with M14, 13.7 µM (inactive). The GI50 in the assay on MCF7 was 22.5 µM (inactive); with MDA-N it was 22 µM (inactive); in the assay on MOLT-4, 22.4 µM (inactive); with OVCAR-5, 33.7 µM (inactive); with PC-3, 23.7 µM (inactive); in the assay on SR, 29.9 µM (inactive). For the same compound, the GI50 in the assay with T47D was 36.1 µM (inactive); in the assay on TK-10 it was 41 µM (inactive).

`NC(CCP(=O)(O)CCC1C=CC=CC1)C(=O)O` (stereo not drawn): the GI50 in the assay with BT-549 is > 100 µM (inactive); in the assay on CAKI-1 it was > 100 µM (inactive); with DU-145 it was > 100 µM (inactive); in the assay with EKVX it was > 100 µM (inactive); with HCT-15, over 100 µM; with Hs-578T it was > 100 µM (inactive). The GI50 in the assay on LOX IMVI, in the assay on M14, with MDA-N, with MOLT-4, in the assay with OVCAR-5 and with PC-3 was > 100 µM (inactive) each time. The GI50 in the assay on SR, in the assay on T47D and in the assay with TK-10 was > 100 µM (inactive) in each case.
